From ChEMBL document CHEMBL5360650, “Discovery of Small-Molecule TIM-3 Inhibitors for Acute Myeloid Leukemia Using Pharmacophore-Based Virtual Screening” (J Med Chem, 2023)
Active and inactive are the calls of the source. No cut-off for these calls is given here.

Key:
[1] = target: T1, Hepatitis A virus cellular receptor 2 (Homo sapiens, UniProt Q8TDQ0); assay: Binding affinity to His-tagged recombinant human TIM3 expressed in HEK293 cells assessed as dissociation constant by sensor chip immobilization based SPR analysis
T1 sequence (Q8TDQ0 whole entry): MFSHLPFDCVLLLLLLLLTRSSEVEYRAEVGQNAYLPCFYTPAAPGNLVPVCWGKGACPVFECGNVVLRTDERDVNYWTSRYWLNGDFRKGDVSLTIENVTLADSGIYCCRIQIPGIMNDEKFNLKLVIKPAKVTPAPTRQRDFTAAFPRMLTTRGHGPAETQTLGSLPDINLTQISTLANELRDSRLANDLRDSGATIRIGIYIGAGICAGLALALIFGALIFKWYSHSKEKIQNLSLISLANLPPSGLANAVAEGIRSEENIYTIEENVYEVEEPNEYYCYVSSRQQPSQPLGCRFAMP

[2] = target: T1, Hepatitis A virus cellular receptor 2; assay: Binding affinity to His-tagged recombinant human TIM3 expressed in HEK293 cells assessed as dissociation constant by MST assay; format: cell-based
[3] = target: Hepatitis A virus cellular receptor 2 (Homo sapiens) (UniProt Q8TDQ0); assay: Inhibition of AF647-labeled TIM3 (unknown origin) binding to ptdSer in staurosporine-induced human Jurkat cells at 200 to 1000 nM preincubated with TIM3 followed by cell culture addition by flow cytometry; format: cell-based; details: dose 200-1000 nM
Homo sapiens = species on record: Homo sapiens; assay: Inhibition of polyhis-tagged CEACAM1 binding to recombinant human TIM3 at 200 to 1000 nM preincubated with TIM3 for 1 hr followed by CEACAM1 addition measured after 1 hr by ELISA method; details: dose 200-1000 nM, time 2.0 hrs
[4] = target: Hepatitis A virus cellular receptor 2 (Homo sapiens) (UniProt Q8TDQ0); assay: Inhibition of recombinant human Gal-9 binding to biotinylated recombinant human TIM3 at 1 uM by competitive ELISA method
[5] = target: Hepatitis A virus cellular receptor 2 (Homo sapiens) (UniProt Q8TDQ0); assay: Inhibition of recombinant TIM3 (unknown origin) cocultured in PBMC cells assessed as IFN-gamma release at 5 uM by ELISA method; format: cell-based
THP-1 = assay: Inhibition of cell proliferation of human THP-1 NucLight Red cells at 5 uM by incucyte based immune cell killing assay; format: functional
Kasumi 1 = assay: Inhibition of cell proliferation of human Kasumi 1 cocultured with 5 uM compound treated human PBMC cells by H3 thymidine uptake; format: functional, cell-based

Structure (SMILES)	Kd [1]	also measured
CCOc1ccc(NC(=O)COc2cccc(-c3noc(-c4ccc(OC)cc4)n3)c2)cc1	1.28 µM	–
CCOc1ccc(NC(=O)COc2cccc(-c3nc(-c4ccc(OC)cc4)no3)c2)cc1	1.35 µM	–
COc1ccc(-c2noc(-c3cccc(OCC(=O)Nc4ccc(OC)cc4OC)c3)n2)cc1	0.61 µM	Kd [2]: 0.00058 µM; inhibition [3]: Active; inhibition (Homo sapiens): Active; inhibition [4]: Active; inhibition [5]: Active; inhibition (THP-1): Active; inhibition (Kasumi 1): Active
Cc1ccc(OCC(=O)Nc2cccc(-c3nc(-c4ccccc4)no3)c2)cc1	53.1 µM	–
COc1ccc(-c2noc(-c3cccc(OCC(=O)Nc4cccc(C)c4)c3)n2)cc1	3.12 µM	–
COc1ccc(-c2noc(-c3cccc(OCC(=O)Nc4ccccc4F)c3)n2)cc1	27.6 µM	–
Cc1cccc(-c2noc(-c3cccc(NC(=O)COc4ccccc4)c3)n2)c1	46.3 µM	–
COc1ccc(-c2noc(-c3cccc(NC(=O)COc4ccccc4)c3)n2)cc1	12.7 µM	–
COc1ccc(-c2noc(-c3cccc(OCC(=O)Nc4cccc(OC)c4)c3)n2)cc1	1.63 µM	–
COc1ccc(-c2noc(-c3cccc(OCC(=O)Nc4ccncc4)c3)n2)cc1	2.01 µM	–
COc1ccc(-c2noc(-c3cccc(NC(=O)COc4ccccc4C)c3)n2)cc1	8.32 µM	–
Cc1ccc(-c2noc(-c3cccc(NC(=O)COc4ccccc4)c3)n2)cc1	42.4 µM	–
COc1cc(-c2cc(OC)c3c(C)oc(C)c3c(=O)c2)ccc1OC(=O)c1ccc(C)cc1	28.9 µM	–
COc1ccc(-c2noc(-c3cccc(OCC(=O)Nc4ccc(C)nc4)c3)n2)cc1	2.47 µM	–
COc1ccc(-c2noc(-c3ccccc3OCC(=O)Nc3cc(C)cc(C)c3)n2)cc1	28.9 µM	–
COc1ccc(-c2noc(-c3cccc(NC(=O)COc4cccc(C)c4)c3)n2)cc1	6.04 µM	–
COc1ccc(-c2noc(-c3cccc(OCC(=O)NCc4ccco4)c3)n2)cc1	11.6 µM	–
O=C(COc1ccccc1)Nc1cccc(-c2nc(-c3ccccc3)no2)c1	63.7 µM	–
Cc1ccc(Nc2nc(C)cc(Nc3ccc(NC(=O)c4ccc5c(c4)OCO5)cc3)n2)cc1	17.3 µM	–
COc1ccc(-c2noc(-c3cccc(NC(=O)COc4ccc(C)cc4)c3)n2)cc1	9.45 µM	–
COc1ccc(-c2noc(-c3cccc(OCC(=O)Nc4cc(OC)ccc4OC)c3)n2)cc1	0.98 µM	–
COc1ccc(-c2noc(-c3cccc(OCC(=O)Nc4ccc(F)cc4)c3)n2)cc1	20.4 µM	–
